Assay results from patent publication US20250017928A1, “OPHTHALMIC PHARMACEUTICAL COMPOSITIONS CONTAINING A NITRIC OXIDE-RELEASING PHOSPHODIESTERASE 5 INHIBITOR AND METHOD FOR THE PREPARATION THEREOF” (Nicox SA, priority 2021, published 2025).

Assay: Aqueous solubility of Compound (I) and its salts
Assay type: physicochemical
Details: aqueous medium; free base
Excerpt: In an effort to enhance the solubility of Compound (I) in aqueous vehicle, ‘salt forms’ of Compound (I) were explored.

SMILES: COc1ccc(CNc2nc(N3CCC[C@H]3COC(=O)CCCCCO[N+](=O)[O-])ncc2C(=O)NCc2ncccn2)cc1Cl [Compound (I), [(2S)-1-(4-{[(3-chloro-4-methoxyphenyl)methyl]amino}-5-{[(pyrimidin-2-yl)methyl]carbamoyl}pyrimidin-2-yl)pyrrolidin-2-yl]methyl 6-(nitrooxy)hexanoate]
- solubility: 13 µg/mL
